According to patent publication US12478671B2, “Sterols as novel immunomodulatory agents and their use as vaccine adjuvants” (Ohio State Innovation Foundation, priority 2017, dated 2025):

Assays:
[1] = test system: OT-II T cells co-cultured with BMDCs; test: T cell co-culture with OVA-peptide-loaded BMDCs (CFSE proliferation, IFN-γ ELISA); assay type: cell-based, OT-II transgenic mice
Method: T Cell Co-culture Experiments 5×10^4 BMDCs were pulsed with 10 μg/mL OVA323-339 peptide (Anaspec, Fremont, CA, USA) for 2 h, then incubated with PEN (25 μM or 50 μM) or DMSO (vehicle control) for 24 h. CFSE labeled T cells isolated from spleens of OT-II transgenic mice were added to the wells at a 1:4 (BMDC:T cell) ratio and incubated for 72 h. Antigen-specific T cell proliferation was analyzed by flow cytometry of CFSE stained cells. Cell co-culture supernatants were collected for analysis of IFN-γ cytokine production by ELISA.
(§1) Cytokine ELISA. Purified anti-mouse antibodies against IFN-γ, IL-4, IL-10, IL-12 (Biolegend, San Diego, CA, USA) and IL-13 (eBiosciences, San Diego, CA, USA) were used to coat plates. Recombinant mouse IFN-γ, IL-4, IL-10, IL-12 and IL-13 (BD Biosciences, San Jose, CA, USA) were used as standards. Biotinylated anti-mouse antibodies for IFN-γ, IL-4, IL-10, IL-12 and IL-13 (Biolegend, San Diego, CA) were used as detection antibodies. AKP-streptavidin (BD Biosciences) and p-nitrophenylphosphate (PNPP, Thermo Fisher Scientific, Waltham, MA, USA) were used for detection. Absorbance was measured at 405 nm using a Spectramax microplate reader and data were analyzed by Softmax Pro software (Molecular Devices LLC, Sunnyvale, CA).

[2] = test system: RAW macrophages (RAW 264.7); test: Macrophage gene expression by RT-PCR; assay type: cell-based
Method: (§2) Macrophage Activation. RAW macrophages (RAW 264.7 (ATCC TIB-71), ATCC, Manassas, VA, USA) were plated at a concentration of 0.5×10^6 cells per well in 24-well plates, and treated with PEN (25 μM or 50 μM) or DMSO (vehicle control) for 24, 48 and 72 h. At the indicated times, cells were harvested for detection of MHC-II, CD40, CD80, CD86 surface expression by flow cytometry. RNA was also extracted from cells to determine gene expression of Tnfα, Il1b, Il6, IL10, Il15, Il18, Nos2, Arg1, and Chil3 by RT-PCR.
Real Time PCR. Total RNA was extracted from RAW macrophages using TRIzol reagent (Life Technologies). RNA was reverse-transcribed to cDNAs using an iScript reverse transcriptase kit (Bio-Rad, Hercules, CA, USA). Real-time PCR reactions using the IQ SYBR Green mix reagent were performed in a CFX96 RT-PCR cycler (Bio-Rad). Primer sequences for Tnfa, Illb, 116, IL10, 1115, 1118, Nos2, Argl and Chil3 were selected from the Primer Bank database (pga.mgh.harvard.edu/primerbank). Data were normalized to the reference gene β-actin and presented as fold induction over controls.

OVA-immunized mice [3] = test: Mouse immunization study: cytokines of spleen and lymph node cells after ex vivo OVA re-stimulation; assay type: in vivo, BALB/c mice
Method: (§3) Mouse Immunization Studies. Six- to seven-week-old female BALB/c mice were purchased from Harlan Laboratories (Indianapolis, IN, USA). Mice were randomized into three groups, and immunized subcutaneously with 100 μg OVA (endotoxin free; BioVendor, Ashville, NC, USA) plus vehicle (Group 1), 100 μg OVA plus 10 μg PEN (Group 2), or 100 μg OVA plus 100 μg PEN (group 3, […]). Each group received respective boosting doses of treatment at weeks 2 and 4. Serum was collected from each mouse at every two weeks after initial immunization for detection of IgG1 and IgG2A antibodies by ELISA. Mice were euthanized at week 10 and spleens and lymph nodes were harvested for detection of cytokines IFN-γ, IL-4, IL-10 and IL-13 by ELISA after re-stimulation with 1 mg/mL OVA antigen for 72 h.
as §1

[4] = test system: RAW macrophages (RAW 264.7); test: Macrophage activation: surface expression of MHC-II, CD40, CD80, CD86 by flow cytometry; assay type: cell-based
Method: as §2
Flow Cytometry. Macrophages treated with PEN or the DMSO control were harvested, washed in PBS, blocked with normal mouse serum, and incubated with fluorochrome conjugated antibodies against the cell surface markers CD40, CD80, CD86 and MHC-II (Biolegend). Cells were acquired on a BD FACS Calibur (BD Biosciences) and analysis was performed using FlowJo software (Tree Star Inc, Ashland, OR, USA).

[5] = test system: RAW-Blue NF-kB/AP1 reporter cell line; test: NF-κB and AP-1 activity assay (SEAP reporter, alkaline phosphatase activity); assay type: cell-based; conditions: 25 μM, 24 h, compared to vehicle alone (FIG. 1)
Method: NF-κB and AP-1 Activity Assay. NF-kB and AP-1 activity was analyzed using the RAW-Blue NF-kB/AP1 reporter cell line (InvivoGen, San Diego, CA, USA), which contains a secreted embryonic alkaline phosphatase (SEAP) reporter construct, inducible by NF-κB and AP-1. Cells were cultured in RPMI 1640 medium supplemented with 10% FBS (Atlanta Biologicals, Flowery Branch, GA, USA) and 1% penicillin streptomycin (Life Technologies, Carlsbad, CA, USA), and stimulated with 25 μM PEN or DMSO (vehicle control) for 24 h. Culture supernatants were then collected and alkaline phosphatase activity was determined by incubating with the detection medium QUANTI-Blue (InvivoGen), and measuring at 655 nm using a SpectraMax spectrophotometer (Molecular Devices LLC, Sunnyvale CA, USA) and analyzed using Softmax Pro software (Molecular Devices LLC).

[6] = test system: Bone marrow-derived dendritic cells (BMDCs); test: Cytokine production (ELISA) by bone marrow-derived dendritic cells; assay type: cell-based, C57BL/6 mice
Method: Isolation of Mouse Bone Marrow-derived Dendritic Cells. Bone marrow-derived dendritic cells (BMDCs) were prepared by harvesting bone marrow cells from the femurs and tibias of C57BL/6 mice. Red blood cell lysis was performed in ACK lysis buffer, and subsequent cells were plated in RPMI medium supplemented with 10% FBS, 1% penicillin-streptomycin (Life Technologies) and 20 ng/mL GM-CSF (Peprotech, Rocky Hill, NJ, USA) at 5 million cells/dish for 6 to 8 days. Cells were harvested then stimulated with PEN (25 μM or 50 μM) or DMSO for 24 h, and culture supernatants were collected for detection of IL-12 and IL-10 cytokines by ELISA.
as §1

OVA-immunized mice [7] = test: Mouse immunization study: serum IgG1 and IgG2a antibody ELISA; assay type: in vivo, BALB/c mice; conditions: 10 μg and 100 μg with 100 μg OVA s.c., compared to vehicle controls (FIG. 6)
Method: as §3
Antibody ELISA. Mice were bled at weeks 2, 4, 6, 8 and 10 after immunization and serum was collected from the blood samples. IgG1 and IgG2a antibody titers were determined by ELISA using HRP-conjugated antibodies (Biolegend) and TMB substrate (KPL, Inc., Gaithersburg, MD, USA). Absorbance was measured at 450 nm by Spectramax microplate reader and data were analyzed by Softmax Pro software (Molecular Devices LLC).

[8] = both concentrations (25 μM, 50 μM), 72 h

## C=C(CCC=C(C)C)[C@H]1CC[C@H]2[C@@H]3CCC4=CC(=O)CC[C@]4(C)[C@H]3CC[C@]12C [PEN, pentalinonsterol]
[1]; 72 h co-culture, PEN-treated vs DMSO-treated BMDCs (FIG. 4C)
  T cell proliferation: higher
[1]; 72 h co-culture, PEN-treated vs DMSO-treated BMDCs (FIG. 4D)
  production of IFN-γ by T cells: significantly increased
[1]; BMDCs treated with 50 μM vs 25 μM
  T cell responses (proliferation and IFN-γ), 50 μM compared to 25 μM: greater
[2]
  transcript levels of Arg1: increased
[2]; 25 μM, after 24 h (FIG. 3E)
  IL-15 gene transcripts: increased
[2]; 25 μM, after 24 h (FIG. 3F)
  IL-18 gene transcripts: increased
[2]; 24 and 48 h, not statistically significant (FIG. 3B)
  Il1b gene expression: increased trend
[2]; 48 h (FIG. 3A)
  mRNA levels of Tnfα: increases
[2]; 48 h (FIG. 3C)
  mRNA levels of Il6: increases
[2]; after 48 h (FIG. 3D)
  gene transcript levels of Nos2: significantly increased
[2]; at 24 h and 48 h
  transcript levels of Chil3: significantly reduced
[2]; at 48 h
  transcript levels of IL-10: significantly reduced
OVA-immunized mice [3]; culture supernatants of lymph node and splenic cells (FIGS. 7B, 7F)
  levels of IL-4: increased
OVA-immunized mice [3]; culture supernatants of lymph node and splenic cells (FIGS. 7D, 7H)
  levels of IL-13: increased
OVA-immunized mice [3]; culture supernatants of lymph nodes and spleens, PEN vs vehicle control (FIGS. 7C, 7G)
  levels of IL-10: generally comparable
OVA-immunized mice [3]; lymph node cells and splenocytes, OVA re-stimulation (FIGS. 7A, 7E)
  levels of IFN-γ: significantly increased
[4]; 25 μM and 50 μM, after 72 h (FIGS. 2A, 2E)
  expression of CD40: significantly enhanced
[4]; 25 μM and 50 μM, at 48 h and 72 h (FIGS. 2B, 2F)
  expression of MHC-II: significantly enhanced
[4]; 50 μM, 48 h
  expression of CD80: increased
  expression of CD86: increased
[4]; [8]
  expression of CD80: increased
  expression of CD86: increased
[5]
  alkaline phosphatase activity (NF-κB/AP-1 SEAP reporter): significantly increased
[6]; 50 μM, 24 h (FIG. 4B)
  IL-10 production: slight increase
[6]; 24 h (FIG. 4A)
  production of IL-12: significantly induces
OVA-immunized mice [7]
  IgG1 antibody titers: significantly increased
  IgG2a antibody titers: significantly increased
